Experimental data from patent US5612329A (priority 1995, dated 1997).

Experiments:
polyamine transporter = conditions: vs longer polyamines such as spermine and spermidine; cited from earlier work
[1] = system: prostatic carcinoma cells; conditions: cited from earlier work
NCl-H460 cells = experiment: In vitro cytotoxicity / cell growth inhibition, non-small cell lung cancer; assay type: cell-based; conditions: Homo sapiens, 48 hr, read-out: log10 G150 (converted)
Procedure: (§1) The anti-proliferative activities of the aziridinylpolyamines obtained in Synthesis Examples 1-4 were assessed by determining log10 G150 values against human cancer cell lines using the screening strategy described by Boyd et al, Drug Devel. Res. 34:91-109 (1995).
(§2) More specifically, the compounds were tested at a minimum of five concentrations at 10-fold dilutions using a 48 hr continuous exposure protocol. Each cell line shown in Table 1 below was inoculated onto microtiter plates. After a pre-incubation period of 24-48 hr at 37° C., the test compounds were added, and the culture was incubated for an additional 48 hr at 37° C. Cell viability or cell growth end-point determinations were performed by fixation of the cells, followed by staining with sulforhodamine B (Monks et al, J. Natl. Cancer Inst., 83:757-766 (1991)).

NCl-H522 cells = experiment: as above; assay type: cell-based; conditions: Homo sapiens, 48 hr, read-out: log10 G150 (converted)
Procedure: as §1, §2

HOP-62 cells = experiment: as above; assay type: cell-based; conditions: Homo sapiens; HOP-62, non-small cell lung cancer, 48 hr; read-out: log10 G150 (converted)
Procedure: as §1, §2

NCl-H322M cells = experiment: as above; assay type: cell-based; conditions: Homo sapiens, 48 hr, read-out: log10 G150 (converted)
Procedure: as §1, §2

NCl-H23 cells = experiment: as above; assay type: cell-based; conditions: Homo sapiens, 48 hr, read-out: log10 G150 (converted)
Procedure: as §1, §2

EKVX cells = experiment: as above; assay type: cell-based; conditions: Homo sapiens, 48 hr, read-out: log10 G150 (converted)
Procedure: as §1, §2

HOP-92 cells = experiment: as above; assay type: cell-based; conditions: Homo sapiens; HOP-92, non-small cell lung cancer, 48 hr; read-out: log10 G150 (converted)
Procedure: as §1, §2

NCl-H226 cells = experiment: as above; assay type: cell-based; conditions: Homo sapiens, 48 hr, read-out: log10 G150 (converted)
Procedure: as §1, §2

A549/ATCC cells = experiment: as above; assay type: cell-based; conditions: Homo sapiens, 48 hr, read-out: log10 G150 (converted)
Procedure: as §1, §2

CAKI-1 cells = experiment: In vitro cytotoxicity / cell growth inhibition, renal cancer; assay type: cell-based; conditions: Homo sapiens; CAKI-1, renal cancer, 48 hr; read-out: log10 G150 (converted)
Procedure: as §1, §2

786-0 cells = experiment: as above; assay type: cell-based; conditions: Homo sapiens; 786-0, renal cancer, 48 hr; read-out: log10 G150 (converted)
Procedure: as §1, §2

ACHN cells = experiment: as above; assay type: cell-based; conditions: Homo sapiens, 48 hr, read-out: log10 G150 (converted)
Procedure: as §1, §2

A498 cells = experiment: as above; assay type: cell-based; conditions: Homo sapiens, 48 hr, read-out: log10 G150 (converted)
Procedure: as §1, §2

TK-10 cells = experiment: as above; assay type: cell-based; conditions: Homo sapiens; TK-10, renal cancer, 48 hr; read-out: log10 G150 (converted)
Procedure: as §1, §2

SN12C cells = experiment: as above; assay type: cell-based; conditions: Homo sapiens, 48 hr, read-out: log10 G150 (converted)
Procedure: as §1, §2

UO-31 cells = experiment: as above; assay type: cell-based; conditions: Homo sapiens; UO-31, renal cancer, 48 hr; read-out: log10 G150 (converted)
Procedure: as §1, §2

RXF-393 cells = experiment: as above; assay type: cell-based; conditions: Homo sapiens; RXF-393, renal cancer, 48 hr; read-out: log10 G150 (converted)
Procedure: as §1, §2

SNB-75 cells = experiment: In vitro cytotoxicity / cell growth inhibition, CNS cancer; assay type: cell-based; conditions: Homo sapiens; SNB-75, CNS cancer, 48 hr; read-out: log10 G150 (converted)
Procedure: as §1, §2

U251 cells = experiment: as above; assay type: cell-based; conditions: Homo sapiens, U-251, 48 hr, read-out: log10 G150 (converted)
Procedure: as §1, §2

SF-268 cells = experiment: as above; assay type: cell-based; conditions: Homo sapiens; SF-268, CNS cancer, 48 hr; read-out: log10 G150 (converted)
Procedure: as §1, §2

SF-539 cells = experiment: as above; assay type: cell-based; conditions: Homo sapiens; SF-539, CNS cancer, 48 hr; read-out: log10 G150 (converted)
Procedure: as §1, §2

SF-295 cells = experiment: as above; assay type: cell-based; conditions: Homo sapiens; SF-295, CNS cancer, 48 hr; read-out: log10 G150 (converted)
Procedure: as §1, §2

SNB-19 cells = experiment: as above; assay type: cell-based; conditions: Homo sapiens; SNB-19, CNS cancer, 48 hr; read-out: log10 G150 (converted)
Procedure: as §1, §2

HL-60 (TB) cells = experiment: cells; assay type: cell-based; conditions: Homo sapiens, leukemia, 48 hr, read-out: log10 G150 (converted)
KM12 cells = experiment: In vitro cytotoxicity / cell growth inhibition, colon cancer; assay type: cell-based; conditions: Homo sapiens, 48 hr, read-out: log10 G150 (converted)
Procedure: as §1, §2

HCT-116 cells = experiment: as above; assay type: cell-based; conditions: Homo sapiens; HCT-116, colon cancer, 48 hr; read-out: log10 G150 (converted)
Procedure: as §1, §2

COLO 205 cells = experiment: as above; assay type: cell-based; conditions: Homo sapiens; COLO 205, colon cancer, 48 hr; read-out: log10 G150 (converted)
Procedure: as §1, §2

SW-620 cells = experiment: as above; assay type: cell-based; conditions: Homo sapiens; SW-620, colon cancer, 48 hr; read-out: log10 G150 (converted)
Procedure: as §1, §2

HCT-15 cells = experiment: as above; assay type: cell-based; conditions: Homo sapiens; HCT-15, colon cancer, 48 hr; read-out: log10 G150 (converted)
Procedure: as §1, §2

HT29 cells = experiment: as above; assay type: cell-based; conditions: Homo sapiens, HT-29, 48 hr, read-out: log10 G150 (converted)
Procedure: as §1, §2

HCC-2998 cells = experiment: as above; assay type: cell-based; conditions: Homo sapiens; HCC-2998, colon cancer, 48 hr; read-out: log10 G150 (converted)
Procedure: as §1, §2

K-562 cells = experiment: In vitro cytotoxicity / cell growth inhibition, leukemia; assay type: cell-based; conditions: Homo sapiens, K562; K-562, leukemia, 48 hr; read-out: log10 G150 (converted)
Procedure: as §1, §2

CCRF-CEN cells = experiment: as above; assay type: cell-based; conditions: Homo sapiens, 48 hr, read-out: log10 G150 (converted)
Procedure: as §1, §2

SR cells = experiment: as above; assay type: cell-based; conditions: Homo sapiens, 48 hr, read-out: log10 G150 (converted)
Procedure: as §1, §2

RPMI-8226 cells = experiment: as above; assay type: cell-based; conditions: Homo sapiens; RPMI-8226, leukemia, 48 hr; read-out: log10 G150 (converted)
Procedure: as §1, §2

MOLT-4 cells = experiment: as above; assay type: cell-based; conditions: Homo sapiens; MOLT-4, leukemia, 48 hr; read-out: log10 G150 (converted)
Procedure: as §1, §2

cancer cell lines = conditions: cited from earlier work
cells = conditions: suggested by the biological activity profile; cited from earlier work
[2] = relative to level predicted from in vitro studies; cited from earlier work
DNA = conditions: compared with chlorambucil per se; cited from earlier work

SMILES	GI50 (NCl-H460 cells)	GI50 (NCl-H522 cells)	GI50 (HOP-62 cells)	GI50 (NCl-H322M cells)	GI50 (NCl-H23 cells)	GI50 (EKVX cells)	GI50 (HOP-92 cells)	GI50 (NCl-H226 cells)	GI50 (A549/ATCC cells)	GI50 (CAKI-1 cells)	GI50 (786-0 cells)	GI50 (ACHN cells)	GI50 (A498 cells)	GI50 (TK-10 cells)	GI50 (SN12C cells)	GI50 (UO-31 cells)	GI50 (RXF-393 cells)	GI50 (SNB-75 cells)	GI50 (U251 cells)	GI50 (SF-268 cells)	also measured
NCCCCN1CC1 [N-(4-aminobutyl)aziridine]																					effectiveness as substrate for the polyamine transporter (polyamine transporter): less effective as a substrate for the polyamine transporter than the longer polyamines; cytotoxicity against prostatic carcinoma cells [1]: cytotoxic against prostatic carcinoma cells
CC1CN1CCCNCCCCNCCCN1CC1C (stereo not shown) [Synthesis Example 4, 1,12-Di-(2-methyl-1-aziridinyl)-4,9-diazadodecane]	9.12 µM	7.24 µM	10.7 µM	91.2 µM	8.71 µM	32.4 µM	14.5 µM	19.1 µM	18.2 µM	3.47 µM	4.47 µM	19.1 µM	> 100 µM	11.7 µM	9.77 µM	17.4 µM	11 µM	2.34 µM	13.2 µM	20.4 µM	GI50 (SF-539 cells): 12.9 µM; GI50 (SF-295 cells): 47.9 µM; GI50 (SNB-19 cells): 25.7 µM; GI50 (HL-60 (TB) cells): 2.95 µM; GI50 (KM12 cells): 64.6 µM; GI50 (HCT-116 cells): 20.9 µM; GI50 (COLO 205 cells): 10 µM; GI50 (SW-620 cells): 41.7 µM; GI50 (HCT-15 cells): > 100 µM; GI50 (HT29 cells): 20.4 µM; GI50 (HCC-2998 cells): 19.1 µM; GI50 (K-562 cells): 29.5 µM; GI50 (CCRF-CEN cells): 3.98 µM; GI50 (SR cells): 4.9 µM; GI50 (RPMI-8226 cells): 31.6 µM; GI50 (MOLT-4 cells): 2.95 µM
C(CNCCCN1CC1)CNCCCN1CC1 [Synthesis Example 2, 1,11-Diaziridinyl-4,8-diazaundecane]	2.95 µM	11.2 µM	6.31 µM	36.3 µM	10.7 µM	25.1 µM	11.2 µM	18.6 µM	13.2 µM	4.07 µM	3.39 µM	3.89 µM	28.2 µM	14.5 µM	6.76 µM	17 µM	3.89 µM	3.98 µM	6.92 µM	10.7 µM	GI50 (SF-539 cells): 11.2 µM; GI50 (SF-295 cells): 14.5 µM; GI50 (SNB-19 cells): 18.2 µM; GI50 (HL-60 (TB) cells): 2.69 µM; GI50 (KM12 cells): 19.5 µM; GI50 (HCT-116 cells): 19.5 µM; GI50 (COLO 205 cells): 13.2 µM; GI50 (SW-620 cells): 26.3 µM; GI50 (HCT-15 cells): 21.9 µM; GI50 (HT29 cells): 18.6 µM; GI50 (HCC-2998 cells): 20.4 µM; GI50 (K-562 cells): 19.5 µM; GI50 (CCRF-CEN cells): 3.72 µM; GI50 (SR cells): 3.09 µM; GI50 (RPMI-8226 cells): 22.4 µM; GI50 (MOLT-4 cells): 3.09 µM
NCCCCNCCCN1CC1 [N-(3-aziridinylpropyl)-1,4-diaminobutane]																					cytotoxicity against a variety of cancer cell lines (cancer cell lines): cytotoxic against a variety of cancer cell lines in submicromolar concentrations
NCCCNCCCCN1CC1 [N-(4-aziridinylbutyl)-1,3-diaminopropane]																					cytotoxicity against a variety of cancer cell lines (cancer cell lines): cytotoxic against a variety of cancer cell lines in submicromolar concentrations
NCCCCN(CCCN)CCCNC(=O)CCCc1ccc(N(CCCl)CCCl)cc1 [chlorambucil-spermidine conjugate]																					uptake by cells (cells): not taken up well by cells; in vivo potency [2]: in vivo potency does not reach the level predicted from in vitro studies; production of DNA cross-links (DNA): highly efficient at producing DNA cross-links compared with chlorambucil per se
CC(CCNCCCCNCCC(C)N1CC1)N1CC1 (stereo not shown) [Synthesis Example 3, 2,13-Diaziridinyl-5,10-diazatetradecane]	6.17 µM	12.6 µM	30.9 µM	63.1 µM	13.2 µM	30.9 µM	19.1 µM	23.4 µM	29.5 µM	5.01 µM	3.8 µM	5.75 µM	69.2 µM	> 100 µM	9.55 µM	35.5 µM	15.1 µM	3.39 µM	15.8 µM	14.5 µM	GI50 (SF-539 cells): 6.31 µM; GI50 (SF-295 cells): 24 µM; GI50 (SNB-19 cells): 26.3 µM; GI50 (HL-60 (TB) cells): 3.31 µM; GI50 (KM12 cells): 81.3 µM; GI50 (HCT-116 cells): 26.3 µM; GI50 (COLO 205 cells): 14.8 µM; GI50 (SW-620 cells): 22.4 µM; GI50 (HCT-15 cells): 41.7 µM; GI50 (HT29 cells): 20 µM; GI50 (HCC-2998 cells): 55 µM; GI50 (K-562 cells): 21.4 µM; GI50 (CCRF-CEN cells): 4.79 µM; GI50 (SR cells): 3.63 µM; GI50 (RPMI-8226 cells): 27.5 µM; GI50 (MOLT-4 cells): 3.24 µM
